# Reference: PubChem BioAssay (NCI)
# Values joined by “and” are separate entries in the source; they are usually repeats but may differ in a detail not shown here. Identical values can stand only once.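 96-well plates; 48 h exposure; 5 concentrations. Endpoints by linear interpolation between flanking doses. Not reached: highest tested concentration assigned. GI50 marks 50% less growth. TGI marks complete inhibition of growth.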
# How the values were obtained:
# Test in all cases: NCI tumour cell line growth inhibition, 48 h
# COLO 205 colon = system: COLO 205 colon
# CAKI-1 renal = system: CAKI-1 renal
# RPMI-8226 leukemia = system: RPMI-8226 leukemia
# DU-145 prostate = system: DU-145 prostate
# SF-295 CNS = system: SF-295 CNS
# A549 NSCLC = system: A549 NSCLC
# MALME-3M melanoma = system: MALME-3M melanoma
# HOP-62 NSCLC = system: HOP-62 NSCLC
# SNB-75 CNS = system: SNB-75 CNS
# A498 renal = system: A498 renal
Compound,GI50 (COLO 205 colon) [µM],TGI (COLO 205 colon) [µM],GI50 (CAKI-1 renal) [µM],TGI (CAKI-1 renal) [µM],GI50 (RPMI-8226 leukemia),TGI (RPMI-8226 leukemia),GI50 (DU-145 prostate) [µM],TGI (DU-145 prostate) [µM],GI50 (SF-295 CNS) [µM],TGI (SF-295 CNS) [µM],GI50 (A549 NSCLC) [µM],TGI (A549 NSCLC) [µM],GI50 (MALME-3M melanoma) [µM],TGI (MALME-3M melanoma) [µM],GI50 (HOP-62 NSCLC) [µM],TGI (HOP-62 NSCLC) [µM],GI50 (SNB-75 CNS) [µM],TGI (SNB-75 CNS) [µM],GI50 (A498 renal) [µM],TGI (A498 renal) [µM]
CC(C)OCc1cc(CN2CCN(c3cccc(Cl)c3)CC2)c(O)c2ncccc12,5.94,19.2,0.223,11,0.558 µM,13.3 µM,0.876,14.7,1.07,11.6,0.512,11.9,1.03,7.33,0.431,6.54,1.19,14.4,0.871,8.25
NS(=O)(=O)c1ccc(N=C2C(=O)Nc3ccccc32)cc1,–,98.4,–,> 100,–,> 100 µM,–,> 100,–,> 100,–,> 100,–,> 100,–,> 100,–,> 100,–,> 100
c1ccc(-c2cn(-c3ccccc3)c(-c3ccccc3)n2)cc1,10.9,23.4,17.4,31.6,2.31 µM,5.47 µM,11.6,23.8,12.9,28.4,13.2,26.6,19.5,36.7,2.72,7.88,14,27.7,15.4,28.8
NCCCNc1nc2ccc(Cl)cc2c2c(=O)c3cc(F)ccc3sc12,2.71,8.91,6.39,20.2,2.77 µM,9.79 µM,1.97,4.05,12,26.5,1.77,3.89,6.91,23.2,6.47,28.5,4.15,19.1,6.1,21
C=C(CN1CCN(c2ccccc2C(F)(F)F)CC1)c1ccc(C(=O)Nc2ccccc2N)cc1,11.5,45.9,7.97,> 51.4,0.164 µM,1.01 µM,7.51,> 49.5,5.98,42.9,4.17,33.8,4.17,> 64.1,4.76,> 44.4,2.82,20.1,5.36,31.8
CCN(CC)CC(O)COc1c(Br)c(Br)c(Br)c2c1OC(C)(C)C2 (configuration not stated),1.98,5.14,6.8,23.8,2.01 µM,4.45 µM,5.43,18.1,1.1,2.71,3.49,13.5,2.28,5.14,4.03,19.7,5.31,19.4,4.44,17.3
COc1ncc(-c2ccc3nccc(C#CCN4CCN(S(C)(=O)=O)CC4)c3c2)cc1NS(=O)(=O)c1ccc(F)cc1F,0.0418,1.18,0.173,13.4,0.256 µM,1.83 µM,0.108,12.6,0.0684,1.17,0.083,7.68,0.015,0.214,< 0.0159,5.56,0.0106,0.152,0.048,0.309
O=C(c1cccs1)c1nc2cc(Cl)ccc2[n+]([O-])c1C(F)(F)F,> 100,> 100,> 100,> 100,64 µM,> 100 µM,> 100,> 100,91.3,> 100,54.8,> 100,99,> 100,> 100,> 100,57.3,> 100,92,> 100
CCCOc1ccc(/C=N/Nc2cc(C)nc3ccc(Cl)cc23)cc1,1.82,3.4,1.78,3.2,1.81 µM,3.99 µM,1.9,3.42,1.72,3.2,1.72,3.35,1.79,3.26,1.58,2.98,1.94,3.54,1.72,3.16
COc1cc2c(cc1OCCCCn1c(-c3cccs3)nc3ccccc31)N=C[C@@H]1CCCN1C2=O,1.07,2.58,0.949,6.71,0.314 µM,1.62 µM,1.32,6.74,–,–,3.22,> 100,1.74,3.27,–,–,1.22,2.54,1.68,4.76
O=Cc1ccc(-c2ccc(-c3ccc(C=O)o3)[se]2)o1,> 100,> 100,> 100,> 100,> 100 µM,> 100 µM,> 100,> 100,> 46.2,> 65.6,> 100,> 100,> 100,> 100,57.5,> 100,29.6,> 100,0.302,10.5
O=C(/C=C/c1nnc2n(Cc3ccccc3)c(=O)c3c4c(sc3n12)CCCC4)c1ccccc1,–,–,–,> 100,0.177 µM and 0.254 µM,0.817 µM and 0.738 µM,> 100,> 100,–,> 100,–,–,> 100,> 100,–,> 100,21.3,91.2,> 100,> 100
CS(=N)(=O)CCC(N)P(=O)(O)O (configuration not stated),–,> 100,–,> 100,–,> 100 µM,–,> 100,–,> 100,–,> 100,–,> 100,–,> 100,–,–,–,> 100
CC1(C)OC2C(CO)OC(n3ccc(N)nc3=O)C2O1 (configuration not stated),–,> 100,–,> 100,–,> 100 µM,–,> 100,–,> 100,–,> 100,–,> 100,–,> 100,–,–,–,> 100
